Measurements from ChEMBL document CHEMBL1147309, “Antitumor agents, 110. Bryophyllin B, a novel potent cytotoxic bufadienolide from Bryophyllum pinnatum” (1989).
In brackets after ≈: the same amount, converted by molar mass.

Columns and labels:
Format in all cases: functional
Settings in all cases: read-out: ED50 (the source's name)
L1210 = assay: Cytotoxicity against mouse L1210 cells
HCT-8 = assay: Cytotoxicity against human HCT8 cells
KB = assay: Cytotoxicity against human KB cells
P388 = assay: Cytotoxicity against mouse P388 cells
A549 = assay: Cytotoxicity against human A549 cells

SMILES | EC50 (L1210) [µg/mL] | EC50 (HCT-8) [µg/mL] | EC50 (KB) [µg/mL] | EC50 (P388) [µg/mL] | EC50 (A549) [µg/mL]
CC(=O)O[C@H]1C[C@@H](O)[C@]2(C=O)[C@H]3CC[C@]4(C)[C@@H](c5ccc(=O)oc5)CC[C@]4(O)[C@@H]3CC[C@]2(O)C1 | > 0.004 | 0.01 (≈ 0.0211 µM) | < 0.04 | > 0.004 | 0.04 (≈ 0.0843 µM)
C[C@@]12O[C@H]3C[C@@H](O1)[C@]1(C=O)[C@H]4[C@H](O)C[C@]5(C)[C@@H](c6ccc(=O)oc6)CC[C@]5(O)[C@@H]4CC[C@@]1(C3)O2 [BRYOPHYLLIN A] | > 0.004 | 0.03 (≈ 0.0635 µM) | 0.014 (≈ 0.0296 µM) | > 0.004 | 0.01 (≈ 0.0212 µM)
CC(=O)O[C@@H]1C[C@H](O)C[C@@]2(O)CC[C@@H]3[C@@H]4[C@@H](C[C@]5(C)[C@@H](c6ccc(=O)oc6)CC[C@]35O)O[C@H](O)[C@]412 [BRYOPHYLLIN B] | – | – | < 0.08 | – | –
